# Assay results reported in patent publication US9463174B2, “Pharmaceutical composition for the treatment of type-1 diabetes” (priority 2008, dated 2016).
# “Also recorded” adds a separate entry of the source.
# Test system: NOD mice
# Assay: Prevention of diabetes in non-obese diabetic (NOD) mice, GABA daily injections from age of 5 week
# Assay type: in vivo
# Description: To examine the role of GABA in the development of diabetes in NOD mice, GABA daily injections were started at age of 5 week and PBS injections as control. Islet immunohistochemistry was performed at their age of 13 wks before the onset of obvious diabetic hyperglucemia. […] It is noted that beyond this age, the blood glucose levels of saline-treated NOD mice were out of the scale of the measurement (red arrows FIG. 6F). These non-treated NOD mice also developed impaired glucose tolerance (FIG. 6F, 6G), associated with reduced circulating C-peptide (FIG. 6H) and elevated circulating glucagon levels (FIG. 6I).
# The techniques used for the in vivo and in vitro studies in this embodiment of the disclosure are also described. CD1 mice (Charles River Laboratories, St Constant, Canada), NOD mice and transgenic TCR NOD mice (Jackson Laboratory, USA) were housed under a controlled temperature and a 12-h light/12-h dark cycle in the St. Michael's Hospital Animal facility with free access to food (normal rodent chow) and water, except where noted. All procedures were conducted according to protocols and guidelines approved by the Canadian Council of Animal Care and the St. Michael's Hospital Animal Care committee. Mice were treated with GABA by daily intraperitoneal (i.p.) injection of 20·g GABA per mouse to reach ˜200 μM circulation concentration and PBS as control. The daily treatment is continuously conducted during 60-day experimental period. One wk after the GABA and PBS treatment, diabetes was induced in both groups by i.p.-injection of low-dose streptozotocin (STZ, Sigma Chemical Co., St. Louis, Mo. 40 mg/kg body weight) for 5 consecutive days. The development of hyperglycemia was monitored by measuring blood glucose from the tail vein every third day following STZ injections using an Ascensia ELITE® XL glucose meter. For some studies, overtly diabetic mice induced by STZ and without GABA treatment were divided into two groups: one group started receiving daily i.p. injection of 20·g GABA whereas other group received only PBS. The treatment was continued for 75 days. The handling of the NOD mice were similar to those CD1 mice except the STZ injection. The NOD mice have a susceptibility to spontaneous development of autoimmune T1D. The TCR transgenic 8.3-NOD mice have a markedly accelerated disease (J. Vergdaguer et al, 1997 J Exp Med. 186(10):1663-76).
# Groups of mice were subject to a glucose tolerance test (IPGTT) before treatment (day 0), one, three, and five weeks after administration and the day prior termination. For IPGTT, mice were fasted overnight for 15 h, and were given 1.5 g glucose/kg body weight via i.p.-injection. Blood was drawn from the tail vein and blood glucose was measured at 0, 10, 20, 30, 60, 90, and 120 min after glucose administration.
# Blood samples (200 μL) were collected from the saphenous vein at time as indicated and at the termination of experiments via cardiac puncture (1 mL) for measurement of insulin, glucagon, and cytokine profiles. Serum was collected by centrifugation and stored at −80° C. until use. Insulin and glucagon concentration in serum samples were determined using insulin ELISA kit (Crystal Chem., Chicago, Ill., USA) and glucagon RIA kit (Linco Research, St. Louis, Miss., USA). Circulating GLP-1 levels were determined using GLP-1 RIA kit (Linco Research, St. Louis, Miss., USA). Cytokine concentration in the serum samples was determined using kit Multiplex Bead-based Cytokine assay (BioRed, Canada).
# Following dewaxing, […] as described previously (Wang Q, Brubaker P L 2002 Diabetologia 45:1263-1273), endogenous peroxidase activity was quenched by incubating sections in 0.3% H2O2 in water for 30 min and antigen retrieval was performed by heating slides in 10 mM sodium citrate buffer, pH 6.0, at ˜70° C. for 30 min. […]
# [1] = age of 13 wks, GABA-treated NOD mice
smiles,measurement,setting,value
"NCCCC(=O)O [GABA, gamma-aminobutyric acid]",beta-cell apoptosis (anti-caspase-3 islet histochemistry),GABA-treated NOD mice,reduced
same,circulating C-peptide,GABA-treated NOD mice,close to those measured at their earlier age; also recorded: significantly increased circulating C-peptide
same,circulating glucagon levels,GABA-treated NOD mice,close to those measured at their earlier age; also recorded: reduced glucagon levels
same,glucose tolerance,GABA-treated NOD mice,close to normal glucose tolerance
same,ratio of insulin to glucagon,GABA-treated NOD mice,significantly elevated the ratio of insulin to glucagon
same,onset of diabetes / development of severe diabetic hyperglycemia,NOD mice,significantly prevented development of severe diabetic hyperglycemia; also recorded: prevents onset of diabetes
same,severe insulitis,age of 13 wks,no severe insulitis was seen
same,islets areas occupied by lymphocytes in islets with relatively severe insulitis,[1],20-30%
same,islets with normal morphology without lymphocyte infiltration,[1],> 70%
same,islets with relatively severe insulitis,[1],about 15%
same,blood glucose levels,"at 18 wks of age, vs saline-treated NOD mice",kept lower blood glucose levels
